In publication PMC8654043 (Chemical Science, 2021):

What was measured:
caspase-8 = caspase-8 (Homo sapiens, UniProt Q14790); type: biochemical
caspase-9 = target: T1, caspase-9 (Homo sapiens, UniProt P55211); type: biochemical
T1 sequence (P55211 1-416): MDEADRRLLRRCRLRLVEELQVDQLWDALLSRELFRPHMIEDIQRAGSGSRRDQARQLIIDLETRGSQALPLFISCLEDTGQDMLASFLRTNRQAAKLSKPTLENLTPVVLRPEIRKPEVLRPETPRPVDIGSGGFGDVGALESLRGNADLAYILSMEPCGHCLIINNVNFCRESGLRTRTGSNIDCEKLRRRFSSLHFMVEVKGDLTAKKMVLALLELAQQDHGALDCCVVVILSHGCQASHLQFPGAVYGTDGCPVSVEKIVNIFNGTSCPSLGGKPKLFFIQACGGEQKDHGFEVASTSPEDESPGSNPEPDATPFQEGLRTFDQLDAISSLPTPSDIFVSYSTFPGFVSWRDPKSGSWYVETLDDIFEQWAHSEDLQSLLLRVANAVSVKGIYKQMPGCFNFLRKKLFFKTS

caspase-8, sequence (Q14790 217-374): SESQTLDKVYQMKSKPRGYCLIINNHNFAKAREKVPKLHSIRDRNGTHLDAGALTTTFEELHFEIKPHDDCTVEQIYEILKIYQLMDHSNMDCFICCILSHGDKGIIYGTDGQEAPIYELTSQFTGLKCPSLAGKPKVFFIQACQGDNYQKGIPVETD
caspase-8, sequence (Q14790 385-479): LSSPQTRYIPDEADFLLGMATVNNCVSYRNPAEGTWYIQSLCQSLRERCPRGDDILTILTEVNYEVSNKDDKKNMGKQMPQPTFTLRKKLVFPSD

IC50 (caspase-8): 280 nM
IC50 (caspase-9): 310 nM
Compound: CC(C)[C@H](NC(=O)c1ccc2ccccc2n1)C(=O)N[C@@H](CC(=O)O)C(=O)COc1c(F)cccc1F [Q-VD-OPh]
